# Data taken from patent US11339144B2 (Navitor Pharmaceuticals, Inc., priority 2017, dated 2022).
# Columns and labels:
# [1] = test system: T389pS6K1 in MCF-7 cells; assay: Cell-based AlphaLISA assay, pS6K1 (Thr389); settings: Homo sapiens, MCF7
# [2] = biological target: HA-GST-Rheb (GTP-γ-S loaded) activating mTORC1 (Homo sapiens (Human), UniProt Q15382); assay: Rheb-dependent in vitro kinase assay (Rheb-IVK; LanthaScreen or Western readout); format: biochemical; settings: Rheb-dependent in vitro kinase assay; read-out: IVK IC50
# [3] = biological target: Rheb (Homo sapiens (Human), UniProt Q15382); assay: Affinity Selection Mass Spectrometry (ASMS); format: binding; settings: affinity (R3/R0) in Affinity Selection Mass Spectrometry assay
# How it was run: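 Human Rheb (60 μM) with GDP (180 μM) and each compound at 2 μM, protein-plus versus protein-minus, incubated 30 min at room temperature, then washed by 10 kDa ultrafiltration. Retained ligand was released with MeCN and detected by UPLC-Q-TOF MS.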
# Sequence of HA-GST-Rheb (GTP-γ-S loaded) activating mTORC1 (Q15382 1-181): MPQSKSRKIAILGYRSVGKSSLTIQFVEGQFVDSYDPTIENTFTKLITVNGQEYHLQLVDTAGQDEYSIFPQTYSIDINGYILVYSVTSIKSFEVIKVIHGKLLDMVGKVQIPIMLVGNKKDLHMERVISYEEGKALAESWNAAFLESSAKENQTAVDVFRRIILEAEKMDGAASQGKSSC
# Sequence of Rheb (Q15382 1-169 limits assumed): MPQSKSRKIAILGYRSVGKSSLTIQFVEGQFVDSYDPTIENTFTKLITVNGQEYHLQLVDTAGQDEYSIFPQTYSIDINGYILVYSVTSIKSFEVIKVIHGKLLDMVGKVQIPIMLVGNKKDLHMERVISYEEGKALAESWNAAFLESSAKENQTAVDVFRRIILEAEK
Compound,IC50 [1],IC50 [2],ASMS (R3/R0) [3]
"CN1CCC(CCNC(=O)c2cc3c(Sc4ccc(Cl)cc4Cl)cc(Cl)cc3[nH]2)CC1 [I-106, 6-chloro-4-(2,4-dichlorophenylthio)-N-(2-(1-methylpiperidin-4-yl)ethyl)-1H-indole-2-carboxamide]",< 10 µM,< 10 µM,B (an affinity (R3/R0) between 100% and 20%)
"O=C(O)c1cc2c(Sc3ccc(Cl)cc3Cl)cc(Cl)cc2n1Cc1ccc(-c2cccc(CO)c2)cc1 [I-72, 6-chloro-4-(2,4-dichlorophenylthio)-1-((3′-(hydroxymethyl)biphenyl-4-yl)methyl)-1H-indole-2-carboxylic acid]",–,< 10 µM,B (an affinity (R3/R0) between 100% and 20%)
COCc1cc2c(Br)cc(Sc3ccc(Cl)c(Cl)c3)cc2n1Cc1ccc(C(=O)N(C)C)cc1 [I-34],–,> 100 µM,B (an affinity (R3/R0) between 100% and 20%)
CN(C)C(=O)c1ccc(Cn2c(C#N)cc3c(Br)cc(Sc4ccc(Cl)c(Cl)c4)cc32)cc1 [I-13],–,> 100 µM,B (an affinity (R3/R0) between 100% and 20%)
"OCc1cc2c(Sc3ccc(Oc4ccccc4)cc3)cc(Cl)cc2[nH]1 [I-116, (6-chloro-4-(4-phenoxyphenylthio)-1H-indol-2-yl)methanol]",–,< 10 µM,B (an affinity (R3/R0) between 100% and 20%)
"OCc1nc2c(OC[C@H]3CCCC[C@H]3O)c(Cl)c(Cl)cc2[nH]1 (single isomer, unassigned) [I-389]",–,> 100 µM,C (an affinity (R3/R0)<20%)
CN(C)C(=O)c1ccc(Cn2c(C(=O)O)cc3c(Br)cc(SC4CCCCC4)cc32)cc1 [I-11],–,> 3 µM,B (an affinity (R3/R0) between 100% and 20%)
"O=C(O)c1cc2c(Sc3ccc(F)cc3)cc(Cl)cc2[nH]1 [I-156, 6-chloro-4-(4-fluorophenylthio)-1H-indole-2-carboxylic acid]",–,10 to 100 µM,B (an affinity (R3/R0) between 100% and 20%)
"Clc1ccc(Sc2cccc3[nH]ccc23)cc1 [I-246, 4-(4-chlorophenylthio)-1H-indole]",–,10 to 100 µM,C (an affinity (R3/R0)<20%)
CC(=O)N[C@@H]1CCCC[C@@H]1COc1c(Cl)c(Cl)cc2[nH]c(CO)nc12 (racemic) [I-369],–,10 to 100 µM,C (an affinity (R3/R0)<20%)
"O=C(O)c1ccc(Cn2c(C(=O)O)cc3c(Br)cc(Oc4ccccc4)cc32)cc1 [I-165, 4-bromo-1-(4-carboxybenzyl)-6-phenoxy-1H-indole-2-carboxylic acid]",–,10 to 100 µM,B (an affinity (R3/R0) between 100% and 20%)
"Clc1ccc(Cl)c(Oc2cccc3[nH]ccc23)c1 [I-251, 4-(2,5-Dichlorophenoxy)-1H-indole]",–,10 to 100 µM,C (an affinity (R3/R0)<20%)
"O=C(O)c1ccc(-c2nc3cc(Cl)c(Cl)cc3[nH]2)cc1 [I-364, 4-(5,6-dichloro-1H-benzo[d]imidazol-2-yl)benzoic acid]",–,100 to 300 µM,B (an affinity (R3/R0) between 100% and 20%)
CC(C)NC(=O)c1ccc(Cn2c(C(=O)O)cc3c(Br)cc(Sc4ccc(Cl)c(Cl)c4)cc32)cc1 [I-101],–,> 100 µM,B (an affinity (R3/R0) between 100% and 20%)
"CN1CCCN(c2ccc(NC(=O)c3cc4c(Sc5ccc(Cl)cc5Cl)cc(Cl)cc4[nH]3)cc2F)CC1 [I-93, 6-chloro-4-(2,4-dichlorophenylthio)-N-(3-fluoro-4-(4-methyl-1,4-diazepan-1-yl)phenyl)-1H-indole-2-carboxamide]",–,< 10 µM,A (an affinity (R3/R0)>100%)
"1-(4-carboxybenzyl)-6-chloro-4-(3,4-dichlorophenoxy)-1H-indole-2-carboxylic acid [I-140]",–,10 to 100 µM,B (an affinity (R3/R0) between 100% and 20%)
"Brc1cc(Oc2ccccc2)cc2c1ccn2Cc1ccc(-c2nn[nH]n2)cc1 [I-220, 1-(4-(2H-tetrazol-5-yl)benzyl)-4-bromo-6-phenoxy-1H-indole]",–,< 10 µM,A (an affinity (R3/R0)>100%)
"CN(C)C(=O)c1ccc(Cn2c(C(=O)O)cc3c(Cl)cc(Sc4ccc(Cl)c(Cl)c4)cc32)cc1 [I-75, 4-chloro-6-(3,4-dichlorophenylthio)-1-(4-(dimethylcarbamoyl)benzyl)-1H-indole-2-carboxylic acid]",–,< 10 µM,B (an affinity (R3/R0) between 100% and 20%)
OCc1nc2c(OCC3COCC3O)c(Cl)c(Cl)cc2[nH]1 (centres unmarked) [I-381],–,> 100 µM,C (an affinity (R3/R0)<20%)

Compound,IC50 [1],IC50 [2],ASMS (R3/R0) [3]
"CN1CCN(C(=O)c2ccc(Cn3c(C(=O)O)cc4c(Br)cc(Sc5ccc(Cl)c(Cl)c5)cc43)cc2)CC1 [I-52, 4-bromo-6-(3,4-dichlorophenylthio)-1-(4-(4-methylpiperazine-1-carbonyl)benzyl)-1H-indole-2-carboxylic acid]",–,10 to 100 µM,B (an affinity (R3/R0) between 100% and 20%)
"OCc1cc2c(Oc3cccc(Cl)c3)cc(Cl)cc2[nH]1 [I-215, (6-chloro-4-(3-chlorophenoxy)-1H-indol-2-yl)methanol]",–,10 to 100 µM,B (an affinity (R3/R0) between 100% and 20%)
"O=C(O)c1cc2c(Cl)cc(Oc3ccccc3)cc2n1Cc1c[nH]cn1 [I-173, 1-((1H-imidazol-4-yl)methyl)-4-chloro-6-phenoxy-1H-indole-2-carboxylic acid]",–,10 to 100 µM,C (an affinity (R3/R0)<20%)
CN1CCC(CCNC(=O)c2cc3c(Br)cc(Sc4ccc(Cl)c(Cl)c4)cc3n2Cc2ccc(C(=O)OC(C)(C)C)cc2)CC1 [I-110],–,> 100 µM,C (an affinity (R3/R0)<20%)
"O=C1CCc2ccc(Oc3cc(Cl)cc4[nH]c(C(=O)O)cc34)cc2N1 [I-108, 6-chloro-4-(2-oxo-1,2,3,4-tetrahydroquinolin-7-yloxy)-1H-indole-2-carboxylic acid]",–,100 to 300 µM,B (an affinity (R3/R0) between 100% and 20%)
"OCc1cc2c(Br)cc(OCCCc3ccccc3)cc2[nH]1 [I-235, (4-Bromo-6-(3-phenylpropoxy)-1H-indol-2-yl)methanol]",–,10 to 100 µM,B (an affinity (R3/R0) between 100% and 20%)
CN(C)C(=O)c1ccc(Cn2c(C(=O)O)cc3cc(-c4ccccc4)c(Sc4ccc(Cl)c(Cl)c4)cc32)cc1 [I-2],–,< 10 µM,B (an affinity (R3/R0) between 100% and 20%)
"CN(C)C(=O)c1ccc(Cn2c(C(=O)O)cc3c4ccccc4c(Sc4ccc(Cl)c(Cl)c4)cc32)cc1 [I-9, 5-(3,4-dichlorophenylthio)-3-(4-(dimethylcarbamoyl)benzyl)-3H-benzo[e]indole-2-carboxylic acid]",–,< 10 µM,A (an affinity (R3/R0)>100%)
"Clc1cc2nc(-c3ncco3)n(Cc3ccc(-c4nn[nH]n4)cc3)c2cc1Cl [I-489, 2-(1-(4-(2H-tetrazol-5-yl)benzyl)-5,6-dichloro-1H-benzo[d]imidazol-2-yl)oxazole]",–,100 to 300 µM,C (an affinity (R3/R0)<20%)
"Clc1ccc(Sc2cc(Cl)cc3[nH]c(-c4c[nH]c5ncccc45)nc23)cc1 [I-339, 6-chloro-4-(4-chlorophenylthio)-2-(1H-pyrrolo[2,3-b]pyridin-3-yl)-1H-benzo[d]imidazole]",–,> 3 µM,B (an affinity (R3/R0) between 100% and 20%)
OCc1nc2cc(OCc3ccccc3F)c(Cl)cc2[nH]1 [I-481],–,> 100 µM,C (an affinity (R3/R0)<20%)
"OCc1nc2cc(OCc3ccccc3)c(Cl)cc2n1Cc1ccc(-c2nnn[nH]2)cc1 [I-437, (1-(4-(1H-tetrazol-5-yl)benzyl)-5-(benzyloxy)-6-chloro-1H-benzo[d]imidazol-2-yl)methanol]",–,> 3 µM,C (an affinity (R3/R0)<20%)
"OCc1nc2c(OCC3CCCCC3)c(Cl)c(Cl)cc2[nH]1 [I-395, (5,6-dichloro-4-(cyclohexylmethoxy)-1H-benzo[d]imidazol-2-yl)methanol]",–,< 10 µM,A (an affinity (R3/R0)>100%)
"O=C(O)Cn1ccc2c(Oc3cc(Cl)ccc3Cl)cc(Cl)cc21 [I-158, 2-(6-Chloro-4-(2,5-dichlorophenoxy)-1H-indol-1-yl)acetic acid]",–,10 to 100 µM,B (an affinity (R3/R0) between 100% and 20%)
"O=C(O)c1cc2c(Cl)cc(-c3cc(Cl)cc(Cl)c3)cc2[nH]1 [I-47, 4-chloro-6-(3,5-dichlorophenyl)-1H-indole-2-carboxylic acid]",–,10 to 100 µM,B (an affinity (R3/R0) between 100% and 20%)
"CN1CCN(c2ccc(-c3nc4cc(Cl)c(Cl)cc4[nH]3)cc2)CC1 [I-366, 5,6-dichloro-2-(4-(4-methylpiperazin-1-yl)phenyl)-1H-benzo[d]imidazole]",–,100 to 300 µM,A (an affinity (R3/R0)>100%)
Clc1cc2[nH]c(-c3ccncc3)nc2c(OCC2CCCCC2)c1Cl [I-348],–,> 100 µM,B (an affinity (R3/R0) between 100% and 20%)
"O=C(O)c1nc2cc(OCc3ccc(Cl)cc3)c(Cl)c(Cl)c2[nH]1 [I-338, 6,7-dichloro-5-(4-chlorobenzyloxy)-1H-benzo[d]imidazole-2-carboxylic acid]",–,> 3 µM,B (an affinity (R3/R0) between 100% and 20%)
CC(C)(C)OC(=O)N1CCN(c2cc(-c3nc4cc(Cl)c(Cl)cc4[nH]3)ccn2)CC1 [I-347],–,> 100 µM,B (an affinity (R3/R0) between 100% and 20%)
